Measured values reported in patent US6288028A, “BPC peptide salts with organo-protective activity, the process for their preparation and their use in therapy” (priority 1997, dated 2001).
Where no end group is shown, it is not given here.

Experiments:
[1] = system: gastric lesions (96% ethanol); test: Ethanol gastric lesions, NO-system; assay type: in vivo, rats; details: for effect on ethanol gastric lesions, agent given alone: NaBPC157 10 μg or 10 ng/kg i.p. with 96% ethanol i.g., 1 hour, L-NAME 5 mg/kg i.v., L-arginine 200 mg/kg i.v. 5 minutes before
Experimental: Some of the effects of NaBPC157 (10 μg or 10 ng/kg) were challenged in rats, such as the salutary activity against gastric lesions and NaBPC157's activity with respect to blood pressure maintenance. The lesions were obtained by using a 1 hour ethanol treatment (96%, i.g. (intragastrically)). NaBPC157 was simultaneously applied (i.p. (intraperitoneally)). In the blood pressure maintenance experiment, NaBPC157 was given intravenously (i.v.).
Also studied was the combined application of N^G -nitro-L-arginine methylester (L-NAME) (5 mg/kg i.v.), a competitive inhibitor of endothelium nitric oxide (NO)-generation and the NO-precursor L-arginine (200 mg/kg i.v.) (D-arginine was ineffective). In the gastric lesion assays, the NO-agents were given 5 minutes before the ethanol injury and the treatment with NaBPC157.

[2] = system: Pulmonary Hypertension Syndrome (PHS) and tissue lesions; test: Pulmonary Hypertension Syndrome, acute and chronic toxicity; assay type: in vivo, chicks; details: for tissue or organ damage (pathohistology): acute and chronic toxicity
Experimental: The present experiments describe the effects of nitric oxide (NO) agonists and antagonists and the influence of NaBPC157 on the development of Pulmonary Hypertension Syndrome (PHS) and tissue lesions in chicks. Experiments investigating acute toxicity were conducted. These included single dose applications of saline (1 ml i.p.), NaBPC157 (10 μg/kg b.w.), L-NAME (NO antagonist/doses 50, 100, 150 mg/kg b.w.) and L-arginine (NO agonist/100 mg/kg b.w./with their combination (L-NAME+NaBPC157, L-NAME+L-arginine)). Pathohistological examinations of the spleen, heart, liver and lungs and hematological analyses were conducted. Furthermore, chronic toxicity experiments were conducted. The animals were treated daily during five weeks with L-NAME (10 mg/kg b.w.), L-arginine (100 mg/kg b.w.), NaBPC157 (10 μg/kg b.w.) and their combinations (L-NAME+NaBPC157, L-NAME+L-arginine) intraperitoneally. Seven animals from each group including controls (saline 1 ml i.p.) were sacrificed every week.

[3] = system: restraint stress lesions; test: 48 hour-restraint stress ulcer model; assay type: in vivo, rats
Experimental: (§1) The effects of NaBPC157 (10 μg or 10 ng/kg i.p., i.g.) were investigated in rats in comparison with several reference standards in several experimental ulcer models (48 hour-restraint stress, subcutaneous cysteamine, intragastrical 96% ethanol ulcer tests, NSAIAs-lesions, DNFB (Dinitrofluorhenzene), reflux esophagitis following esophagojejunal termino-lateral anastomosis) (pre-/co-/post-treatment).

[4] = system: DNFB-intestinal lesions; test: DNFB-intestinal lesions; parameters: species or system rats; details: rat, in vivo
Experimental: as §1

[5] = system: mobility in chronically stressed rats; test: Chronic unpredictable stress, open field-immobility test; assay type: in vivo, rat; details: NaBPC157 10 μg, 10 ng; imipramine 30 mg; once daily
Source text: Various antidepressants have antiulcer activity and the models currently used in ulcer and depression research share a considerable degree of similarity. Therefore, the possibility that depression disorders could be effectively influenced by a primary antiulcer agent with cyto-/organo-protective activity such as NaBPC157 was investigated in two rat depression assays: the forced swimming test (a Porsolt's procedure) and the chronic unpredictable stress method (after five days of unpredictable stress protocol, once-daily drug application during the stress procedure and an open field-immobility test assessment at fourth and sixth days of medication).

[6] = system: portal blood pressure, organ lesions; test: Chronic alcohol intoxication; assay type: in vivo, Male Albino Wistar rats; details: alcohol for three months; NaBPC157 10 μg, 10 ng/kg; propranolol, ranitidine 10 mg/kg b.w.
Experimental: The effects of NaBPC157 on chronic alcohol intoxication were examined. Male Albino Wistar rats were used for these experiments. The rats were drinking either commercial whiskey or ethanol (10-20% water solution) for three months. The application of NaBPC157 (10 μg, 10 ng/kg b.w.), propranolol (10 mg/kg b.w.), and ranitidine (10 mg/kg b.w.) (control rats received an equivolume of saline 5.0 ml/kg), either intragastrically or intraperitoneally, was conducted either prophylactically (10 days before alcohol initiation) or as a co-treatment together with alcohol or therapeutically (starting at the end of a two month period, i.e. during the last month of the experiment).

[7] = system: reflux esophagitis; test: Reflux esophagitis after esophagojejunal anastomosis; parameters: species or system rats; details: rat, in vivo
Experimental: as §1

[8] = system: diazepam tolerance and withdrawal; test: Diazepam tolerance and physical dependence, isoniazid latencies; parameters: species or system mice; details: mouse, in vivo
Experimental: In tolerance assays forty-two hours after the conditioning regimen, shorter preconvulsive latencies than that in healthy mice following an isoniazid treatment (800 mg/kg i.p.) were observed if diazepam (5.0 mg/kg i.p.) was given again to mice previously conditioned with diazepam alone. […] In this group at six hour intervals, unlike in diazepam conditioned mice, isoniazid preconvulsive latencies were still longer than in corresponding controls.

[9] = system: amphetamine stereotyped behavior; test: Amphetamine stereotypes and excitability; assay type: in vivo, rats; details: no amphetamine
Experimental: The effects of NaBPC157 on the dopamine agonist amphetamine (10 mg/kg i.p.) stereotypes and on excitability were studied. NaBPC157 was applied as a prophylactic co-treatment or therapeutic salutary regimen (10 μg or 10 ng/kg i.p.). The stereotyped behaviour and excitability was induced in rats.

[10] = Toxicity observations; assay type: in vivo; details: high dosages (e.g. g/kg b.w., i.p.)
[11] = system: ethanol ulcer; test: Intragastrical 96% ethanol ulcer test; assay type: in vivo, rats; details: reference peptides; related to treatment conditions
[12] = system: cysteamine ulcer; test: Subcutaneous cysteamine ulcer test; assay type: in vivo, rats; details: reference peptides

Q: With `N=C(N)NCCC[C@@H](N)C(=O)O` [D-arginine] as the compound, how does the “effect on ethanol gastric lesions, agent given alone” value [1] read?
A: ineffective

Q: With `COC(=O)[C@@H](N)CCCNC(=N)N[N+](=O)[O-]` [L-NAME, N^G -nitro-L-arginine methylester] as the compound, how does the “effect on ethanol gastric lesions, agent given alone” value [1] read?
A: had no effect

Q: What about the “induction of PHS” value ([2]; L-NAME) of the same compound?
A: caused PHS

Q: And the “tissue or organ damage (pathohistology)” value [2]?
A: caused severe tissue damage

Q: What about the hematological analyses ([2]; in vivo) of the same compound?
A: significant hemoglobin and leukocyte number decreases

Q: Which results are given for `N=C(N)NCCC[C@H](N)C(=O)O` [L-arginine]?
A: antiulcer activity after L-NAME ([1]; L-NAME 5 mg/kg i.v. 5 minutes before ethanol): completely abolished; effect on ethanol gastric lesions, agent given alone [1]: antiulcer effect; tissue or organ damage (pathohistology) [2]: provoked predominantly congestion, edema and hemorrhages in all organs; inhibition of the effects of L-NAME ([2]; in vivo): successfully inhibited; prevention of L-NAME-caused PHS ([2]; simultaneous application, L-arginine 100 mg/kg, NaBPC157 10 μg/kg b.w.): prevented

Q: With `NC12CC3CC(CC(C3)C1)C2` [amatadine] as the compound, how does the “effect in restraint stress” value [3] read?
A: ineffective

Q: With `CC(C)C[C@H]1C(=O)N2CCC[C@H]2[C@]2(O)O[C@](NC(=O)[C@@H]3C=C4c5cccc6[nH]c(Br)c(c56)C[C@H]4N(C)C3)(C(C)C)C(=O)N12` [bromocriptine] as the compound, how does the “effect in restraint stress” value [3] read?
A: ineffective

Q: And the “effect on DNFB-intestinal lesions” value [4]?
A: only partially effective

Q: Which “effect in restraint stress” value [3] does the source give for `CN/C(=N/CCSCc1nc[nH]c1C)NC#N` [cimetidine] here?
A: ineffective

Q: Which “effect in restraint stress” value [3] does the source give for `NC(N)=Nc1nc(CSCCC(N)=NS(N)(=O)=O)cs1` [famotidine] here?
A: ineffective

Q: Which “mobility in chronic unpredictable stress” value [5] does the source give for `CN(C)CCCN1c2ccccc2CCc2ccccc21` [imipramine] here?
A: failure of imipramine activity

Q: For `CC(C)NCC(O)COc1cccc2ccccc12` (stereo not drawn) [propranolol], which portal blood pressure [6] is on record?
A: markedly prevented and/or decreased

Q: For `CNC(=C[N+](=O)[O-])NCCSCc1ccc(CN(C)C)o1` [ranitidine], which portal blood pressure [6] is on record?
A: even more increased portal pressure values

Q: And the “effect on reflux esophagitis” value [7]?
A: only partially effective

Q: Which “effect in restraint stress” value [3] does the source give for `C[C@H](N)C(=O)NCC(=O)N[C@H]1CSSC[C@@H](C(=O)O)NC(=O)[C@H](CO)NC(=O)[C@H]([C@@H](C)O)NC(=O)[C@H](Cc2ccccc2)NC(=O)[C@H]([C@@H](C)O)NC(=O)[C@H](CCCCN)NC(=O)[C@H](Cc2c[nH]c3ccccc23)NC(=O)[C@H](Cc2ccccc2)NC(=O)[C@H](Cc2ccccc2)NC(=O)[C@H](CC(N)=O)NC(=O)[C@H](CCCCN)NC1=O` [somatostatin] here?
A: ineffective

Q: What does the source list for “GEPPPGKPADDAGLV [NaBPC157, Monosodium Salt of BPC157]”?
A: tolerance effect of the agent itself [8]: does not produce any tolerance effect; gross behavior, agent alone [9]: does not affect gross behavior or induce stereotypes; tissue or organ damage (pathohistology) [2]: did not cause any tissue or organ damage; influence on basal parameters [10]: No influence on different basal parameters; toxicity at high dosages [10]: no toxicity

Q: For NPY, which “effect, ethanol” value [11] is on record?
A: partial positive effect

Q: What about the “protection, cysteamine” value [12] of the same compound?
A: dose-dependent protection

Q: Which “effect, ethanol” value [11] does the source give for secretin here?
A: partial positive effect

Q: And the “protection, cysteamine” value [12]?
A: dose-dependent protection

Q: For sucralfate, which “effect on reflux esophagitis” value [7] is on record?
A: only partially effective
